According to ChEMBL document CHEMBL4002605, “Synthesis, identification and in vitro biological evaluation of some novel quinoline incorporated 1,3-thiazinan-4-one derivatives” (Bioorg Med Chem Lett, 2017):
≈ marks a conversion by molar mass, not a printed value.

Key:
[1] = test system: Mycobacterium tuberculosis; experiment: Antitubercular activity against Mycobacterium tuberculosis H37Rv at 6 ug/mL; type: functional
Salmonella typhi = experiment: Antibacterial activity against Salmonella typhi MTCC 98 by broth microdilution assay method; type: functional, Salmonella enterica subsp. enterica serovar Typhi; conditions: Salmonella enterica
Streptococcus pneumoniae = experiment: Antibacterial activity against Streptococcus pneumoniae MTCC 1936 by broth microdilution assay method; type: functional
Escherichia coli = experiment: Antibacterial activity against Escherichia coli MTCC 443 by broth microdilution assay method; type: functional
Bacillus subtilis = experiment: Antibacterial activity against Bacillus subtilis MTCC 441 by broth microdilution assay method; type: functional
Plasmodium falciparum = experiment: Antimalarial activity against Plasmodium falciparum; type: functional
Vibrio cholerae = experiment: Antibacterial activity against Vibrio cholerae MTCC 3906 by broth microdilution assay method; type: functional
Clostridium tetani = experiment: Antibacterial activity against Clostridium tetani MTCC 449 by broth microdilution assay method; type: functional

Compound	inhibition at 6 µg/mL [1]	MIC (Salmonella typhi)	MIC (Streptococcus pneumoniae)	MIC (Escherichia coli)	MIC (Bacillus subtilis)	IC50 (Plasmodium falciparum)	MIC (Vibrio cholerae)	MIC (Clostridium tetani)
O=C1CCSC(c2cccc(Cl)c2)N1CCNc1ccnc2cc(Cl)ccc12 (centres undefined)	60%	250 µg/mL (≈ 578 µM)	125 µg/mL (≈ 289 µM)	125 µg/mL (≈ 289 µM)	250 µg/mL (≈ 578 µM)	1.57 µg/mL (≈ 3.63 µM)	250 µg/mL (≈ 578 µM)	250 µg/mL (≈ 578 µM)
COc1cccc(C2SCCC(=O)N2CCCNc2ccnc3cc(Cl)ccc23)c1 (centres undefined)	51%	250 µg/mL (≈ 566 µM)	250 µg/mL (≈ 566 µM)	250 µg/mL (≈ 566 µM)	250 µg/mL (≈ 566 µM)	1.87 µg/mL (≈ 4.23 µM)	500 µg/mL (≈ 1130 µM)	500 µg/mL (≈ 1130 µM)
O=C1CCSC(c2ccc(F)cc2)N1CCNc1ccnc2cc(Cl)ccc12 (centres undefined)	80%	62.5 µg/mL (≈ 150 µM)	62.5 µg/mL (≈ 150 µM)	62.5 µg/mL (≈ 150 µM)	62.5 µg/mL (≈ 150 µM)	0.081 µg/mL (≈ 0.195 µM)	125 µg/mL (≈ 301 µM)	15.6 µg/mL (≈ 37.5 µM)
O=C1CCSC(c2ccc(O)cc2)N1CCNc1ccnc2cc(Cl)ccc12 (centres undefined)	74%	250 µg/mL (≈ 604 µM)	250 µg/mL (≈ 604 µM)	500 µg/mL (≈ 1210 µM)	62.5 µg/mL (≈ 151 µM)	1.78 µg/mL (≈ 4.3 µM)	250 µg/mL (≈ 604 µM)	250 µg/mL (≈ 604 µM)
O=C1CCSC(c2ccccc2)N1CCCCNc1ccnc2cc(Cl)ccc12 (centres undefined)	32%	500 µg/mL (≈ 1170 µM)	500 µg/mL (≈ 1170 µM)	500 µg/mL (≈ 1170 µM)	500 µg/mL (≈ 1170 µM)	3.12 µg/mL (≈ 7.32 µM)	500 µg/mL (≈ 1170 µM)	500 µg/mL (≈ 1170 µM)
O=C(NN1C(=O)CCSC1c1cccc(F)c1)c1cnc2c(C(F)(F)F)cccc2c1O (centres undefined)	73%	250 µg/mL (≈ 537 µM)	250 µg/mL (≈ 537 µM)	125 µg/mL (≈ 269 µM)	125 µg/mL (≈ 269 µM)	0.91 µg/mL (≈ 1.96 µM)	125 µg/mL (≈ 269 µM)	125 µg/mL (≈ 269 µM)
O=C1CCSC(c2cccc(F)c2)N1CCCCNc1ccnc2cc(Cl)ccc12 (centres undefined)	55%	100 µg/mL (≈ 225 µM)	250 µg/mL (≈ 563 µM)	125 µg/mL (≈ 282 µM)	250 µg/mL (≈ 563 µM)	1.31 µg/mL (≈ 2.95 µM)	125 µg/mL (≈ 282 µM)	125 µg/mL (≈ 282 µM)
O=C1CCSC(c2cccc(Cl)c2)N1CCCCNc1ccnc2cc(Cl)ccc12 (centres undefined)	49%	125 µg/mL (≈ 271 µM)	250 µg/mL (≈ 543 µM)	250 µg/mL (≈ 543 µM)	250 µg/mL (≈ 543 µM)	1.93 µg/mL (≈ 4.19 µM)	125 µg/mL (≈ 271 µM)	250 µg/mL (≈ 543 µM)
